Laboratory results taken from patent US9364479B2, “Use of a receptor-type kinase modulator for treating polycystic kidney disease” (SYMPHONY EVOLUTION, INC., priority 2010, dated 2016).
Read-outs that look alike come from different tables or passages of the source.

Experiments:
[1] = test system: BALB/C mice; conditions: mouse, in vivo
[2] = target: T1, EGFR (Homo sapiens, UniProt P00533); experiment: Luciferase-coupled chemiluminescence kinase assay; format: biochemical; conditions: ATP at Km
T1 construct: residues H672-A1210 of human EGFR, Proqinase; purchased Proqinase
T1 sequence (P00533 672-1210): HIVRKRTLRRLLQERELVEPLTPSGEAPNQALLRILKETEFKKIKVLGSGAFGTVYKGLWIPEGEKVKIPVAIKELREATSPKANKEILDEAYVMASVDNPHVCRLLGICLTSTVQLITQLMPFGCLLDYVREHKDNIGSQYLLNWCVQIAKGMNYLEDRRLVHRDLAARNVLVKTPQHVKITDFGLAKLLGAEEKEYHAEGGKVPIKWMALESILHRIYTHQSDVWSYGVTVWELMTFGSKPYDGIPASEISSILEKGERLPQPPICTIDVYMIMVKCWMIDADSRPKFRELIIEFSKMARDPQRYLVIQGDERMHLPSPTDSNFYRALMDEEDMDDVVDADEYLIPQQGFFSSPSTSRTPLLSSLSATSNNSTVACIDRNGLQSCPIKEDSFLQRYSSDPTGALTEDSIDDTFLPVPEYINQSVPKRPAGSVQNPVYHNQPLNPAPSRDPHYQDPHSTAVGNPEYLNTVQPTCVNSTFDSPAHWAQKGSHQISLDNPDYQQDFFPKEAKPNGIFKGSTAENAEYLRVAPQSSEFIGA
Source text: Dose-response experiments were done using 10 different inhibitor concentrations in 384-well microtiter plates. The ATP concentration used for each assay was equivalent to the Km for each kinase.

[3] = test system: Serotonin, Non-selective; experiment: NovaScreen assay; format: binding
[4] = test system: Calcium Channel, Type L (Dihydropyridine Site); experiment: NovaScreen assay; format: binding
[5] = target: T2, Oxytocin (Homo sapiens, UniProt P30559); experiment: NovaScreen assay; format: binding; conditions: read-out: Inhibition, 10 μM XL-647
T2 construct: NovaScreen
T2 sequence (P30559 whole entry): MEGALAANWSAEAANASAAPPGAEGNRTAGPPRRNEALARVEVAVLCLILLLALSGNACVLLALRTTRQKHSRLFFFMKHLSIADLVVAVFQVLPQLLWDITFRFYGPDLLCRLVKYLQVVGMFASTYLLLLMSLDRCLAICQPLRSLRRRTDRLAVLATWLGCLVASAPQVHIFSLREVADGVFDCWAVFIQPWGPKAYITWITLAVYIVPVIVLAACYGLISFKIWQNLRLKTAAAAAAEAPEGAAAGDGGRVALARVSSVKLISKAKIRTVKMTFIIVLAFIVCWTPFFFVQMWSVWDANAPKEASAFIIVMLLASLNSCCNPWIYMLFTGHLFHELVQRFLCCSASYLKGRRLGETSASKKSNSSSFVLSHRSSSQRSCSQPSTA

[6] = target: T3, Platelet Activating Factor, PAF (Homo sapiens, UniProt P25105); experiment: NovaScreen assay; format: binding; conditions: read-out: Inhibition, 10 μM XL-647
T3 construct: NovaScreen
T3 sequence (P25105 whole entry): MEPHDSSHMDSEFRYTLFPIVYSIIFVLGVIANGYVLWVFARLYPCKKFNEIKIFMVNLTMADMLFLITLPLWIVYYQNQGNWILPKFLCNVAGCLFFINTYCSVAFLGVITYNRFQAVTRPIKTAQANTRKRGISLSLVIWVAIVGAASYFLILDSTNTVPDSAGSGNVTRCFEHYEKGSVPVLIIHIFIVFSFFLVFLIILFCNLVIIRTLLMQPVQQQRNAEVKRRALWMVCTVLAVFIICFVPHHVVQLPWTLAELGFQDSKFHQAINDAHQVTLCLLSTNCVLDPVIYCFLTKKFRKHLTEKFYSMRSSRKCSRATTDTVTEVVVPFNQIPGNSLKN

[7] = target: T4, Cholecystokinin, CCK2 (CCKB) (Homo sapiens, UniProt P32239); experiment: NovaScreen assay; format: binding; conditions: read-out: Inhibition, 10 μM XL-647
T4 construct: NovaScreen
T4 sequence (P32239 whole entry): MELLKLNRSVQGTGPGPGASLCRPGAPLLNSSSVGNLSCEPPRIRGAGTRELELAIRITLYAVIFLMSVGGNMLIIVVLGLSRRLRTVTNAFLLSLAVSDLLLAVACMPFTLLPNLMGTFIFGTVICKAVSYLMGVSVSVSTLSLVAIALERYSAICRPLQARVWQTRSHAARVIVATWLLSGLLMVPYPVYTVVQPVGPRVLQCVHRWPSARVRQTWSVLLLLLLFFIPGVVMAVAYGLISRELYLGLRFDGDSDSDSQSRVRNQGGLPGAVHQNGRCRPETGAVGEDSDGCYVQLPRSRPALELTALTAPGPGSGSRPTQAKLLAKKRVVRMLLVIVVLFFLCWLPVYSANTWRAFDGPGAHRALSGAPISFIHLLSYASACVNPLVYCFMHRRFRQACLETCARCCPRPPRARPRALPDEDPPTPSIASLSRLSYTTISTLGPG

[8] = target: T5, FGFR1 (Homo sapiens, UniProt P11362); experiment: AlphaScreen kinase assay; format: biochemical
T5 construct: cytoplasmic; GST-His6 (N); purchased ProQinase
Procedure: (§1) An AlphaScreen tyrosine kinase assay was used to measure ErbB2 and Flt-4 activity. Donor beads coated with streptavidin and acceptor beads coated with PY100 anti-phosphotyrosine antibody (Perkin-Elmer) were used. Biotinylated poly(Glu,Tyr) 4:1 was used as the substrate. Substrate phosphorylation was measured by luminescence following donor-acceptor bead addition followed by complex formation. Test compound, 3 μmol/L ATP, 3 nmol/L biotinylated poly(Glu,Tyr) 4:1, and 1 nmol/L ErbB2 (residues Q679-V1255 of human ErbB2, Proqinase) or Flt-4 (residues D725-R1298 of human Flt-4, Proqinase) were combined in a volume of 20 μL Assay Buffer (20 mM TrisHCl, pH 7.5, 10 mM MgCl2, 3 mM MnCl2, 1 mM DTT, 0.01% Triton) in a 384-well white, medium-binding microtiter plate (Greiner). Reaction mixtures were incubated for 1 h at room temperature. Reactions were quenched by addition of 10 μL of 15 to 30 μg/mL AlphaScreen bead suspension containing 75 mmol/L HEPES (pH 7.4), 300 mmol/L NaCl, 120 mmol/L EDTA, 0.3% bovine serum albumin, and 0.03% Tween 20. After 2 to 16 h of incubation at room temperature, plates were read using an AlphaQuest reader (Perkin-Elmer).
(§2) Further screening was performed using the biochemical assay methods of Example 2. Additional description of the components and concentrations are summarized in Table 8, Table 9, and Table 10, below.

[9] = target: T6, Fyn (Homo sapiens, UniProt P06241); experiment: AlphaScreen kinase assay; format: biochemical
T6 construct: His6 (N); purchased Upstate Biotechnology
T6 sequence (P06241 whole entry): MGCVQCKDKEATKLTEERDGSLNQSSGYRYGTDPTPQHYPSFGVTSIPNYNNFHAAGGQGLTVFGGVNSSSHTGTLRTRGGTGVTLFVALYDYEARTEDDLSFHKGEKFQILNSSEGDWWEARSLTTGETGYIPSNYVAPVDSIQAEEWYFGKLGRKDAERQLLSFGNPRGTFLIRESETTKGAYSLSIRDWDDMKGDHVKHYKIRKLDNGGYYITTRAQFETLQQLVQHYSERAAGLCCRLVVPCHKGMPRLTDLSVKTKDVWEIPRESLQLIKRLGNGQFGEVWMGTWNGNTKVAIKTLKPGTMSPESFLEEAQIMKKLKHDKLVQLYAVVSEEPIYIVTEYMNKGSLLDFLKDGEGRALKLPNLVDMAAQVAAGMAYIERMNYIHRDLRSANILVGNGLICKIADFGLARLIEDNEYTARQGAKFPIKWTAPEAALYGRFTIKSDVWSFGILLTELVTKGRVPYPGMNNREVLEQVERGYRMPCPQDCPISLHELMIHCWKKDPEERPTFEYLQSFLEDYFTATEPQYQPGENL
Procedure: as §1, §2

[10] = target: T7, Lck (Homo sapiens, UniProt P06239); experiment: Chemiluminescent kinase assay; format: biochemical
T7 construct: Human, Q225-; mM MgCl2, 3 mM MnCl2, 1; P510, N-GST/C-; GST (N); EF (C)
T7 sequence (P06239 225-509 limits assumed): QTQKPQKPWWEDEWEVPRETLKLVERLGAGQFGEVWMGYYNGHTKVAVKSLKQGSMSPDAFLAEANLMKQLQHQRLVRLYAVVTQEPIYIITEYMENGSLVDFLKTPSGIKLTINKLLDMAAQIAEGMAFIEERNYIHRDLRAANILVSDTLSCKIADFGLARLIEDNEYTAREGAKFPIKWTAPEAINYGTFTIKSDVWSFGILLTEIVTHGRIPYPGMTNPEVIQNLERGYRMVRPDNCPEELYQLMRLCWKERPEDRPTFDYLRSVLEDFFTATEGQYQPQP
Procedure: (§3) A Luciferase-coupled chemiluminescence assay was used to measure EGFR and KDR (VEGFR2) activity. Kinase activity was measured as the percentage of ATP consumed following the kinase reaction using luciferase-luciferin-coupled chemiluminescence. Reactions were conducted in 384-well white, medium-binding microtiter plates (Greiner). […] The reaction mixture was incubated at room temperature for 4 h. Following the kinase reaction, a 20 μL aliquot of Kinase Glo (Promega) was added and luminescence signal was measured using a Victor2 plate reader (Perkin-Elmer). Total ATP consumption was limited to 50%.
as §2

[11] = target: T8, ZAP-70 (Homo sapiens, UniProt P43403); experiment: Chemiluminescent kinase assay; format: biochemical
T8 construct: purchased MBL
T8 sequence (P43403 whole entry): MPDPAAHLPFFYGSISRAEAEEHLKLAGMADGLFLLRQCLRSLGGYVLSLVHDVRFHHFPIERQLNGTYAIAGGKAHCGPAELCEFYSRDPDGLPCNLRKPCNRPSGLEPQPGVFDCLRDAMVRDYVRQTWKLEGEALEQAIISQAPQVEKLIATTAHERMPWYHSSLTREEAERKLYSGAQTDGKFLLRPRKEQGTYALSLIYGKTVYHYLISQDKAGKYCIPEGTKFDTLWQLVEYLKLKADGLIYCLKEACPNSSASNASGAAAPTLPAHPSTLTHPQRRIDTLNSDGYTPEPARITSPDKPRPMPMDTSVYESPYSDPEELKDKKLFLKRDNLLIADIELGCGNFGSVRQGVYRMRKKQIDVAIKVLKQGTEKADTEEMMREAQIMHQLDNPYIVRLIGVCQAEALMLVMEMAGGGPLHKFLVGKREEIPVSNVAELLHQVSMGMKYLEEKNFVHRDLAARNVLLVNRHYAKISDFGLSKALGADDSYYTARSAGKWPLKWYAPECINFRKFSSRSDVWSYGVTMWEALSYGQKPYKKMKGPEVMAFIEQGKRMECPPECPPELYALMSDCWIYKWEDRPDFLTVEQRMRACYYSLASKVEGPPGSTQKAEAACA
Procedure: as §3, §2

[12] = target: T9, c-Abl (Homo sapiens, UniProt P00519); experiment: Chemiluminescent kinase assay; format: biochemical
T9 construct: Human, P118-; mM MgCl2, 3 mM MnCl2, 1; S553, N-GST,; GST (N); purchased ProQinase
T9 sequence (P00519 118-553): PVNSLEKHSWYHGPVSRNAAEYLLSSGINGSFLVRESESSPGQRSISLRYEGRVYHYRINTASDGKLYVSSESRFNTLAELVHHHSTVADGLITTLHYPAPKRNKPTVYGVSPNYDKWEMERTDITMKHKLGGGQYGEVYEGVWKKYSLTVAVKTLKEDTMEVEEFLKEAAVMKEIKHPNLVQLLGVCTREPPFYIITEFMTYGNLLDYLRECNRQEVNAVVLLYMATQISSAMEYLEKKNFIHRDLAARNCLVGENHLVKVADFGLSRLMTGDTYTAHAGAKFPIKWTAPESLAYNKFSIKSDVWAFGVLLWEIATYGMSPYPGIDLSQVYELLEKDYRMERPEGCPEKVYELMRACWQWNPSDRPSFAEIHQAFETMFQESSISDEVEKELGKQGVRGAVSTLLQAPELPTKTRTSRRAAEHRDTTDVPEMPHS
Procedure: as §3, §2

[13] = target: T10, c-Met (Homo sapiens, UniProt P08581); experiment: Chemiluminescent kinase assay; format: biochemical
T10 construct: Human, P948-; MgCl2, 0.02% Triton X-100,; S1343, N-GST-; GST (N); purchased ProQinase
T10 sequence (P08581 956-1390 limits assumed): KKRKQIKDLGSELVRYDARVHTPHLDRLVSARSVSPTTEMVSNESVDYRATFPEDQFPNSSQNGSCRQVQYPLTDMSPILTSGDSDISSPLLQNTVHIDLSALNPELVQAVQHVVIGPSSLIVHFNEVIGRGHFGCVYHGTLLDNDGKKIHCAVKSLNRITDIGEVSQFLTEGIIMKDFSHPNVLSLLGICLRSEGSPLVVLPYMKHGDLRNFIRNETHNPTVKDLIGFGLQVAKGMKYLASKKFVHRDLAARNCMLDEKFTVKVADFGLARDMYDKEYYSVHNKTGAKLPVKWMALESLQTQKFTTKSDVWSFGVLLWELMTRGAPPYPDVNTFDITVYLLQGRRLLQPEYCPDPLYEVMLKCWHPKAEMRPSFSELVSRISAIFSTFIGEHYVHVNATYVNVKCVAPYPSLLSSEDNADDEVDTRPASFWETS
Procedure: as §3, §2

[14] = target: T11, PKA (Bos taurus, UniProt P00517); experiment: Chemiluminescent kinase assay; format: biochemical, bovine
T11 construct: Bovine (Heart),; purchased Upstate Biotechnology; host or cells: bovine heart
Procedure: as §2

[15] = test system: subjects with advanced solid tumors; experiment: Clinical Study XL-647-002 (Phase 1, daily dosing)
[16] = target: EGFR L858R (pCMV/Lx-1) (Homo sapiens, UniProt P00533, L858R); experiment: EGFR phosphorylation ELISA in transfected Lx-1 cells
Source text: (§4) Lx-1 cells were used because they lack background EGFR activity. A clone corresponding to the longest EGFR isoform (Genbank accession no. NM_005228.3/NP_005219.2 #21-176, Upstate Biotechnology) was used as a template to produce two mutant EGFR genes (coding for L858R and L861Q) by site-directed mutagenesis. The WT and the two sequence-verified mutants were transferred to a COOH-terminal Flag-tagged retroviral cytomegalovirus promoter-driven mammalian expression vector. The two Tet-On expression vectors, EGFR WT (Tet-On) and EGFRvIII (Tet-On), which were COOH-terminally Flag tagged, were generously provided by Dr. Abhijit Guha (University of Toronto, Toronto, Ontario, Canada).
(§5) Transient transfections of Lx-1 cells were done using Lipofectamine 2000 (Invitrogen) according to the manufacturer's protocol. For transfections of the WT, L858R, and L861Q constructs, 1 μg plasmid DNA was used for each transfection (each well of a 12-well plate). […]
(§6) For the EGFR phosphorylation ELISA, Reacti-Bind streptavidin-coated plates (Pierce) were coated with 2 μg/mL biotin-conjugated anti-Flag antibody (Sigma). […] Horseradish peroxidase activity was determined by reading the plates in a Victor2 plate reader following addition of the ELISA Femto substrate.

[17] = target: EGFR WT (pTet-On/Lx-1) (Homo sapiens, UniProt P00533); experiment: as above
Source text: as §4, §5, §6

[18] = target: EGFR Variant III (pTet-On/Lx-1) (Homo sapiens, UniProt P00533, DELINS30-297G); experiment: as above
Sequence of EGFR Variant III (pTet-On/Lx-1) (P00533 with tags, fused parts or gaps DELINS30-297G): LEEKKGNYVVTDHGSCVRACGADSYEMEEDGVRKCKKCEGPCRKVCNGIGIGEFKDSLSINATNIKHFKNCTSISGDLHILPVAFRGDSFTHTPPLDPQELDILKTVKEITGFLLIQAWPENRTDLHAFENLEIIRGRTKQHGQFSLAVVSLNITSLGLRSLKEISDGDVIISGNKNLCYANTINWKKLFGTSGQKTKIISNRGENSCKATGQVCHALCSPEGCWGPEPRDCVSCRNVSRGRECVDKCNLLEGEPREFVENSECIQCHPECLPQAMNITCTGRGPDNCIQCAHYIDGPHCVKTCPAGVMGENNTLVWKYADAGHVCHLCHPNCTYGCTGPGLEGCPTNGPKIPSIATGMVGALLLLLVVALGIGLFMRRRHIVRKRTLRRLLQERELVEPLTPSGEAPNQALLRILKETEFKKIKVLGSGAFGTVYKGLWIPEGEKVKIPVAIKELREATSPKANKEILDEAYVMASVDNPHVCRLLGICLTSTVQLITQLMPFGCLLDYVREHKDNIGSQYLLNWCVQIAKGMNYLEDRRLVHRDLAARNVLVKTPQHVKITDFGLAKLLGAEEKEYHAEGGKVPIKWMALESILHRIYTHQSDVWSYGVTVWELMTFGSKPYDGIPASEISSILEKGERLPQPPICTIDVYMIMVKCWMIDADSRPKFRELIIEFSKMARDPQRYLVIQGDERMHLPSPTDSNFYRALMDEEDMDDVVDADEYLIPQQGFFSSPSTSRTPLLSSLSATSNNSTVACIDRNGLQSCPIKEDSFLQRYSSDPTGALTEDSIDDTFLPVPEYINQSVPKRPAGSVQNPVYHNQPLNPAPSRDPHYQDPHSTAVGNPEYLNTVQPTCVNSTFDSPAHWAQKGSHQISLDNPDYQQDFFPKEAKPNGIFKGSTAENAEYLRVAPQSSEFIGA
Source text: as §4, §5, §6

`COc1cc2c(Nc3ccc(Cl)c(Cl)c3F)ncnc2cc1OC[C@@H]1C[C@@H]2CN(C)C[C@@H]2C1` [XL-647, N-(3,4-dichloro-2-fluorophenyl)-7-({[(3aR,5r,6aS)-2-methyloctahydrocyclopenta[c]pyrrol-5-yl]methyl}oxy)-6-(methyloxy)quinazolin-4-amine] showed a BUN ([1]; 7.5 mg/kg/day) of 19.00 mg/dL, a CT-CI ([1]; 7.5 mg/kg/day) of 0 and a Creatinine ([1]; 7.5 mg/kg/day) of 0.24 mg/dL. It also gave an MUCA ([1]; 7.5 mg/kg/day) of 1029 mOsmol, a BUN ([1]; 15 mg/kg/day) of 19.29 mg/dL and a CT-CI ([1]; 15 mg/kg/day) of 0. It also gave a Creatinine ([1]; 15 mg/kg/day) of 0.29 mg/dL, an MUCA ([1]; 15 mg/kg/day) of 1029 mOsmol and an IC50 [2] of 0.3 ± 0.1 nM. For the same molecule, the “Inhibition, 10 μM XL-647” value [3] was 24.52%, the “Inhibition, 10 μM XL-647” value [4] was 46.77% and the inhibition at 10 µM [5] was -2.59%. For the same molecule, the inhibition at 10 µM [6] was 11.7%, the inhibition at 10 µM [7] was 17.1% and the IC50 [8] was 855 ± 96.3 nM. The IC50 [9] was 41 ± 8.1 nM, the IC50 [10] was 31 ± 0.3 nM and the IC50 [11] was 7810 ± 655 nM. The IC50 [12] was 337 ± 3.6 nM, the IC50 [13] was 332 ± 50.7 nM and the IC50 [14] was greater than 10000 nM. For the same molecule, the “subjects with SD lasting greater than 3 months” value ([15]; human, in vivo) was 16 subjects, the MTD ([15]; single oral dose daily) was 300 mg and the IC50 [16] was 5 nM. It also gave an IC50 [17] of 5 nM and an IC50 [18] of 74 nM.
